By AUC(0-t) is commonly meant exposure summed from dosing to a finite time, without extrapolation to infinity. A high value points to more exposure. As usually defined, the Cmax is the highest concentration seen after dosing. The half-life is how long it takes for the measured level to halve. A high value points to slow decline.

The values below come from publication PMC2955234 (Investigational New Drugs, 2009).

The test system of one data set is lymphocyte. Kind of data set: Drug lymphocyte stimulation test in the two patients with erythema multiforme. The class given is cell-based, human. To be noted: both patients with erythema multiforme of cohort 1.
Data set [1] is classed as in vivo, human.
The nature of a further data set: Dose-limiting toxicity. The class given is in vivo, human. To be noted: in combination with carboplatin AUC 5 mg min mL^−1 and paclitaxel 200 mg/m^2, Japanese patients with advanced NSCLC.
Data set [2] is described as follows: Pharmacokinetics of sorafenib in plasma. It counts as in vivo. To be noted: human, oral, 400 mg; for Cmax: C max.
[3] abbreviates: Cohort 2, dose-adjusted ratio cycle 2 relative to cycle 1.
[4] abbreviates: sorafenib at 400 mg twice daily.

Like-named read-outs stand apart in the source and are kept apart here.

Consider `CC(=O)O[C@H]1C(=O)[C@@]2(C)[C@H]([C@H](OC(=O)c3ccccc3)[C@]3(O)C[C@H](OC(=O)[C@H](O)[C@@H](NC(=O)c4ccccc4)c4ccccc4)C(C)=C1C3(C)C)[C@]1(OC(C)=O)CO[C@@H]1C[C@@H]2O` [Paclitaxel], for which, in the data set with lymphocyte, the “drug lymphocyte stimulation test result” value was “negative”. Further, in data set [1] (setting [3]), the “AUC Ratio [90% CI]” value is 1.05 [0.88–1.25] and the “C max Ratio [90% CI]” value is 1.19 [0.80–1.77]. Further, the “C max Ratio [90% CI]” value in data set [1] (Cohort 2, dose-adjusted ratio cycle 3 relative to cycle 1) was 1.39 [0.88–2.21]. Further, in data set [1] (setting [4]), the “increases in the AUC and C max values after sorafenib administration” value is given as “not statistically significant”.
Consider `CC(=O)O[C@H]1C(=O)[C@@]2(C)[C@H]([C@H](OC(=O)c3ccccc3)[C@]3(O)C[C@H](OC(=O)[C@H](O)[C@@H](NC(=O)c4ccccc4)c4ccccc4)C(C)=C1C3(C)C)[C@]1(OC(C)=O)CO[C@@H]1[C@@H](O)[C@@H]2O` [6-hydroxy-paclitaxel], for which the “increases in the AUC and C max values after sorafenib administration” value in data set [1] (setting [4]) is “not statistically significant”.
As for `N.N.O=C([O-])C1(C(=O)[O-])CCC1.[Pt+2]` [carboplatin], the “drug lymphocyte stimulation test result” value in the data set on lymphocyte is on record as “negative”. Moreover, the “effect of sorafenib on the pharmacokinetics” value in data set [1] (setting [4]) is “no effect”.
On to `CNC(=O)c1cc(Oc2ccc(NC(=O)Nc3ccc(Cl)c(C(F)(F)F)c3)cc2)ccn1` [Sorafenib], for which the “drug lymphocyte stimulation test result” value in the data set with lymphocyte is recorded as “positive”. For the same compound, the “dose of sorafenib confirmed to be feasible” value in “Dose-limiting toxicity” was determined as 400 mg once daily. In addition, the AUC(0-t) in data set [2] (AUC0–12, Cohort 1, cycle 1, day 2, 400 mg sd (n = 6), geometric mean (% CV)) turned out to be 18200 ng·h/mL; in data set [2] (AUC0–12, Cohort 2, cycle 1, day 2, 400 mg sd (n = 7), geometric mean (% CV)) it was 9000 ng·h/mL; in data set [2] (AUC0–12, Cohort 2, cycle 1, day 19, 400 mg od (n = 7), geometric mean (% CV)) it was 24400 ng·h/mL; in data set [2] (AUC0–12, Cohort 2, cycle 2, day 2, 400 mg sd (n = 6), geometric mean (% CV)), 14600 ng·h/mL. In addition, the highest concentration (Cmax) in data set [2] (Cohort 1, cycle 1, day 19, 400 mg bid (n = 3), geometric mean (% CV)) worked out at 4600 ng/mL; in data set [2] (Cohort 2, cycle 1, day 2, 400 mg sd (n = 7), geometric mean (% CV)), 1200 ng/mL; in data set [2] (Cohort 2, cycle 1, day 19, 400 mg od (n = 7), geometric mean (% CV)) it was 3200 ng/mL; in data set [2] (Cohort 2, cycle 2, day 19, 400 mg bid (n = 4), geometric mean (% CV)), 5900 ng/mL. In addition, the half-life in data set [2] (mean t 1/2, on day 19, across cohorts and cycles) is 20.4 to 26.8 h; in data set [2] (t 1/2, Cohort 1, cycle 1, day 19, 400 mg bid (n = 3), geometric mean (% CV)), 20.4 h; in data set [2] (t 1/2, Cohort 2, cycle 1, day 19, 400 mg od (n = 7), geometric mean (% CV)), 26.8 h; in data set [2] (t 1/2, Cohort 2, cycle 2, day 19, 400 mg bid (n = 4), geometric mean (% CV)) it was 23.9 h.
